Here are results for one molecule from US20190307818A1, “NOVEL ANTIMICROBIAL COMPOSITIONS AND METHODS OF USE” (priority 2016, published 2019).

What all share (assay type): cell-based, P. aeruginosa
Test [1] addresses T1, LasR (Pseudomonas aeruginosa, UniProt P25084).
T1 construct: expressed in transfected cells; host or cells: E. coli TOP10 carrying pBAD-A 6xHIS-lasR and pCS26 plasB-luxCDABE
The test is described as follows: Two plasmid E. coli LasR reporter (luciferase). To be noted: read-out: Percent Activity (LasR reporter). The text has this:
(§1) A two plasmid E. coli reporter system was constructed, in which LasR or RhlR was expressed under an arabinose inducible promoter (e.g., LasR or RhlR was cloned into a pBAD-A vector and expressed upon addition of arabinose) in the presence of a LasR-dependent or RhlR-dependent promoter fused to luciferase (e.g., cloned into a pCS26 vector). Upon the addition of arabinose and in the presence of AI, LasR or RhlR were expressed, formed a complex with the cognate AI, underwent dimerization, and activated transcription of the reporter construct. All potential inhibitors were tested at 100 μM. The percent activity was reported relative to wild-type (100%).
(§2) A sample experimental protocol for the RhlR reporter (see, e.g., Table 5A2) or for the LasR reporter (see, e.g., Table 5A1).
(§3) A clean plate was filled with water, 70% ethanol, LB, and primed with cultured cells to ensure that initial dispensing led to the appropriate volume of cells being added to the wells. 20 μL of this solution was dispensed into appropriate wells in a 384-well plate that contained small molecule antagonists. 20 μL of this solution was dispensed into wells intended for a positive control that contain only DMSO. To the culture that was saved for negative control, arabinose was added to 0.1%. An equal volume of DMSO was added to the culture, relative to the amount of AI added to the other culture. 20 μL of culture was dispensed into wells intended for a negative control that contained only DMSO and no small molecule QS inhibitors. Plates were incubated at 30° C. in the plate shaker. Plates were read using a 384 LUM/OD 600 setting on the plate reader after 4 hours of induction.
For data analysis, the average and standard deviation for each of the control groups were determined. In a screen, for each data point, the number of standard deviations from the mean was determined to determine if the inhibitor was a “hit”. In a dose response curve, for each data point, the percent inhibition was determined: 1−(X/M), where X=single data point and M=is the mean of the AI only control group. The dose response curve was then plotted as a function of % inhibition (y) v. [inhibitor] on a log scale (x).

Test [2] addresses T1, LasR. The test is described as follows: 10-point autoinducer dose response on LasR reporter with QS inhibitor (competition). To be noted: inhibitor at 100 μM; increasing concentrations of AI. The protocol:
FIG. 4. QS inhibitors bind non-competitively to LasR. A 10-point dose response curve with increasing concentrations of autoinducer 3-O—C12-HSL (AI) was generated for a variety of QS small molecule inhibitors. In this figure, curve C12 (filled circle) corresponds to the absence of inhibitor. […] Instead, the inhibitors bind elsewhere on LasR to prevent LasR-dependent transcription.
Using known molecular biology techniques, assays were performed to determine whether binding of the small molecule QS inhibitors and the AIs occurred by a competitive or by another inhibitory mechanism (see, e.g., FIG. 4).
Thus, a 10-point dose response curve with concentrations of AI ranging from 10 pM to 5 nM was generated for a variety of QS small molecule inhibitors. Curve C12 (dotted filled line) corresponds to the absence of inhibitor. […] Instead, the inhibitors bind elsewhere on LasR to prevent LasR-dependent transcription.

Another test addresses T2, RhlR (Pseudomonas aeruginosa, UniProt P54292).
T2 construct: expressed in transfected cells; host or cells: E. coli TOP10 carrying pBAD-A 6xHIS-rhlR and pCS26 prhlA-luxCDABE
The test is described as follows: Two plasmid E. coli RhlR reporter (luciferase). To be noted: read-out: Percent Activity (RhlR reporter).
From the text: as §1, §2
For the RhlR reporter, strains were re-streaked on LB+appropriate antibiotic before each experiment and grown overnight at 37° C. Three colonies were picked and a 3 mL overnight culture in LB+appropriate antibiotic was started. The culture was grown overnight at 37° C. The overnight culture was back-diluted 1:1000 into fresh LB+appropriate antibiotic in an appropriate volume, depending on the number of plates being screened. Each well in a 384 well plate received about 20 μL of culture. An additional 25 mL of culture was reserved for priming the plate filler. The culture was grown at 37° C. until OD600˜0.5, which took about 4 hrs. A 384-well plate was prepared. Stock concentrations of molecules (e.g., small molecule inhibitors) were 10 mM.
For a 10-point dose response for the RhlR reporter, a 1:3 dilution of molecule:DMSO (333 μL of stock molecule, 667 μL of DMSO using a 1 mL pipetteman) was used for accurate dispensing by the robot dispenser. Upon a prompt by the software, the appropriate concentration of each molecule was added. Each well was normalized with a DMSO standard to bring the total % volume of DMSO up to 1% using the robot. Plates were set aside with dispensed drugs until the cells were ready. Once the cells reached an OD600 of 0.5, an appropriate amount of cell culture was dispensed for screening into an Erlenmeyer flask. (Extra culture was saved for a negative control.) Arabinose was added to 0.1% final concentration (1:1000 dilution from stock solution), and AI was added to 10 μM (ED75) from a 10 mM stock. The components of the flask were mixed together by swirling. As mentioned previously, other concentrations of AIs may be suitable, e.g., the concentrations may be in the range of 2 uM to 100 uM, from 10 uM to 100 uM or from 2 uM to 10 uM. In some embodiments, 2 nM of 3-O—C12-HSL (for LasR) and 10 uM of C4-HSL (for RhlR) were used.
as §3
For data analysis, the average and standard deviation for each of the control groups were determined. In a screen, for each data point, the number of standard deviations from the mean was determined to determine if the inhibitor was a “hit”. In a dose response curve, for each data point, the percent inhibition was determined: 1−(X/M), where X=single data point and M=is the mean of the AI only control group. […]

Another test concerns LasR and RhlR. The experiment in a line: Receptor specific reporter assays for LasR and RhlR activity (stated in words).
From the text: wherein R may be H or OH, and two or more of the R substituents of a given compound are OH; R′ is H or OH; and R″ is H or OH. […] A variety of compounds were obtained and tested for activity (e.g., inhibition of receptor specific reporter assays for LasR and RhlR activity).
as §1
On the technique in general: A reporter such as luciferase makes a cellular process visible.

T1 sequence (P25084 whole entry): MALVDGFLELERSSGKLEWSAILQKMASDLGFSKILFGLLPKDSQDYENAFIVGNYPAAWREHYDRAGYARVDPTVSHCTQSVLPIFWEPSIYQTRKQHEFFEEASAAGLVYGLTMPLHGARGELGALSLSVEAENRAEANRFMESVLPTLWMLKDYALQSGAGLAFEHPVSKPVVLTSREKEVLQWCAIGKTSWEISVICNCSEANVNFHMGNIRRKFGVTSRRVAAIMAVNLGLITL
T2 sequence (P54292 whole entry): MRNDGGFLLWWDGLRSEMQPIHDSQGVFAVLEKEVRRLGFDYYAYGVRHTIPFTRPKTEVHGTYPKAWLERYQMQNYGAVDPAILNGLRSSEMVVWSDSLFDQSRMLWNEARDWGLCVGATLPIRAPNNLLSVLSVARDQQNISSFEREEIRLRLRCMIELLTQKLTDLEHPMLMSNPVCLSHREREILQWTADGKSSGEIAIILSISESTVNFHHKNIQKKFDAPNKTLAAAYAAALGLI

With `O=c1cc(-c2ccccc2)oc2cc(O)c(O)c(O)c12` [Molecule 46, Baicalein], the remaining activity at 100 µM was 46.7% at LasR [1] and 57.4% at RhlR. For the same molecule, the “competition with autoinducer 3-O—C12-HSL for LasR” value at LasR [2] is “did not compete”. Further, the “activity (inhibition of receptor specific reporter assays for LasR and RhlR activity)” value in the test on LasR and RhlR was “inhibit both LasR and RhlR”.
